From ChEMBL document CHEMBL1275568, “Comparison of disk diffusion and agar dilution methods for erythromycin, ciprofloxacin, and tetracycline susceptibility testing of Campylobacter coli and for tetracycline susceptibility testing of Campylobacter jejuni subsp. jejuni” (2008)

Tests used:
Type in all cases: functional
Campylobacter coli [1] = assay: Antimicrobial activity against Campylobacter coli by disk diffusion method
Campylobacter coli [2] = assay: Antimicrobial activity against Campylobacter coli assessed as resistant rate
Campylobacter jejuni = assay: Antimicrobial activity against Campylobacter jejuni by disk diffusion method

| SMILES | diameter of the inhibition zone (DIZ) (Campylobacter coli [1]) | Activity (Campylobacter coli [2]) | diameter of the inhibition zone (DIZ) (Campylobacter jejuni) |
| --- | --- | --- | --- |
| O=C(O)c1cn(C2CC2)c2cc(N3CCNCC3)c(F)cc2c1=O [CIPROFLOXACIN] | >=20 mm |  |  |
| CC[C@H]1OC(=O)[C@H](C)[C@@H](O[C@H]2C[C@@](C)(OC)[C@@H](O)[C@H](C)O2)[C@H](C)[C@@H](O[C@@H]2O[C@H](C)C[C@H](N(C)C)[C@H]2O)[C@](C)(O)C[C@@H](C)C(=O)[C@H](C)[C@@H](O)[C@]1(C)O [ERYTHROMYCIN] | >=15 mm |  |  |
| CN(C)[C@@H]1C(O)=C(C(N)=O)C(=O)[C@@]2(O)C(O)=C3C(=O)c4c(O)cccc4[C@@](C)(O)[C@H]3C[C@@H]12 [TETRACYCLINE] | >=26 mm | 48% | <=20 mm |
